Reference: the supplement of paper PMC11451515

System: P12-Ichikawa
Assay: cell viability relative to DMSO control; higher = less cytotoxic
Conditions: 48 h
Method in brief: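 Viability values are per-plate percentages of DMSO wells, with background from cell-free wells. Library compounds in DMSO were pin-dosed, in an 11-point threefold series from 47 μM to 0.79 nM, onto NOMO1 or SEM (500 cells/well) or P12-Ichikawa (1000 cells/well) leukemia cells in 1536-well plates (5 μl). Those cells had been adapted for at least four passages in each medium, and CellTiter-Glo One luminescence was read after 48 h at 37°C.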

[1] = HPLM + 10% dialyzed FBS, 0.000781 µM
[2] = HPLM + 10% dialyzed FBS, 0.00234 µM
[3] = HPLM + 10% dialyzed FBS, 0.00702 µM
[4] = HPLM + 10% dialyzed FBS, 0.0211 µM
[5] = HPLM + 10% dialyzed FBS, 0.0632 µM
[6] = HPLM + 10% dialyzed FBS, 0.19 µM
[7] = HPLM + 10% dialyzed FBS, 0.569 µM
[8] = HPLM + 10% dialyzed FBS, 1.71 µM
[9] = HPLM + 10% dialyzed FBS, 5.12 µM
[10] = HPLM + 10% dialyzed FBS, 15.4 µM
[11] = HPLM + 10% dialyzed FBS, 46.1 µM
[12] = RPMI 5 mM glucose + 10% FBS, 0.000781 µM
[13] = RPMI 5 mM glucose + 10% FBS, 0.00234 µM
[14] = RPMI 5 mM glucose + 10% FBS, 0.00702 µM
[15] = RPMI 5 mM glucose + 10% FBS, 0.0211 µM
[16] = RPMI 5 mM glucose + 10% FBS, 0.0632 µM
[17] = RPMI 5 mM glucose + 10% FBS, 0.19 µM
[18] = RPMI 5 mM glucose + 10% FBS, 0.569 µM
[19] = RPMI 5 mM glucose + 10% FBS, 1.71 µM
[20] = RPMI 5 mM glucose + 10% FBS, 5.12 µM
[21] = RPMI 5 mM glucose + 10% FBS, 15.4 µM
[22] = RPMI 5 mM glucose + 10% FBS, 46.1 µM
[23] = RPMI 5 mM glucose + 10% dialyzed FBS, 0.000781 µM
[24] = RPMI 5 mM glucose + 10% dialyzed FBS, 0.00234 µM
[25] = RPMI 5 mM glucose + 10% dialyzed FBS, 0.00702 µM
[26] = RPMI 5 mM glucose + 10% dialyzed FBS, 0.0211 µM
[27] = RPMI 5 mM glucose + 10% dialyzed FBS, 0.0632 µM
[28] = RPMI 5 mM glucose + 10% dialyzed FBS, 0.19 µM
[29] = RPMI 5 mM glucose + 10% dialyzed FBS, 0.569 µM
[30] = RPMI 5 mM glucose + 10% dialyzed FBS, 1.71 µM
[31] = RPMI 5 mM glucose + 10% dialyzed FBS, 5.12 µM
[32] = RPMI 5 mM glucose + 10% dialyzed FBS, 15.4 µM
[33] = RPMI 5 mM glucose + 10% dialyzed FBS, 46.1 µM

Row | Structure (SMILES) | cell viability [1] [%] | cell viability [2] [%] | cell viability [3] [%] | cell viability [4] [%] | cell viability [5] [%] | cell viability [6] [%] | cell viability [7] [%] | cell viability [8] [%] | cell viability [9] [%] | cell viability [10] [%] | cell viability [11] [%] | cell viability [12] [%] | cell viability [13] [%] | cell viability [14] [%] | cell viability [15] [%] | cell viability [16] [%] | cell viability [17] [%] | cell viability [18] [%] | cell viability [19] [%] | cell viability [20] [%] | cell viability [21] [%] | cell viability [22] [%] | cell viability [23] [%] | cell viability [24] [%] | cell viability [25] [%] | cell viability [26] [%] | cell viability [27] [%] | cell viability [28] [%] | cell viability [29] [%] | cell viability [30] [%] | cell viability [31] [%] | cell viability [32] [%] | cell viability [33] [%]
1 | COc1c(C)c2c(c(O)c1C/C=C(\C)CCC(=O)O)C(=O)OC2 | 108 | 107 | 111 | 109 | 113 | 109 | 103 | 99.1 | 90.5 | 50.2 | 38.2 | 108 | 110 | 106 | 104 | 112 | 104 | 104 | 85 | 60.9 | 36.7 | 23 | 103 | 97.8 | 95.3 | 100 | 104 | 97.6 | 103 | 82 | 64 | 39.7 | 28.7
2 | COc1cccc2c1C(=O)c1c(O)c3c(c(O)c1C2=O)C[C@@](O)(C(=O)CO)C[C@@H]3O[C@H]1C[C@H](N)[C@H](O)[C@H](C)O1 | 115 | 114 | 112 | 117 | 116 | 107 | 98.6 | 58.2 | 7.45 | 5.63 | 11.9 | 113 | 116 | 119 | 114 | 113 | 108 | 93.8 | 44.7 | 7.04 | 5.82 | 8.62 | 109 | 114 | 108 | 107 | 117 | 106 | 92.2 | 67 | 7.81 | 7.58 | 13
3 | C[C@@H]1CCO[C@H]2CN\3/C=C(/C(=O)NCC4=C(F)C=C(F)C=C4)C(=O)\C(=C3C(=O)N12)O | 108 | 109 | 103 | 109 | 106 | 105 | 103 | 96.5 | 103 | 104 | 93.5 | 99.3 | 99.5 | 106 | 105 | 101 | 104 | 111 | 96.3 | 93.9 | 91.9 | 74 | 105 | 97.1 | 103 | 97.9 | 101 | 95.6 | 98.7 | 93.6 | 97.7 | 86.5 | 82.1
4 | CCCCCCCCCCCCCC(=O)N[C@H](CO)[C@H](O)c1ccc([N+](=O)[O-])cc1 | 99.4 | 90.6 | 100 | 104 | 102 | 102 | 105 | 79.7 | 40.3 | 2.44 | 1.98 | 96.9 | 94.2 | 95.5 | 92.7 | 102 | 84.9 | 89.1 | 55.1 | 21.1 | 3.47 | 1.51 | 89.4 | 81.5 | 90.9 | 94 | 94.8 | 85.8 | 93.4 | 52 | 24.6 | 4.09 | 2.4
5 | COc1cc[nH]c2ncc(C(=O)C(=O)N3CCN(C(=O)c4ccccc4)C[C@H]3C)c1-2 | 114 | 112 | 118 | 111 | 112 | 109 | 108 | 101 | 106 | 103 | 102 | 114 | 118 | 119 | 117 | 117 | 117 | 122 | 111 | 107 | 111 | 97.5 | 105 | 109 | 96.9 | 110 | 101 | 99.1 | 116 | 103 | 99.4 | 99.5 | 103
6 | C=CC(=O)Nc1cc2c(Nc3ccc(F)c(Cl)c3)ncnc2cc1OCCCN1CCOCC1 | 124 | 132 | 119 | 120 | 118 | 122 | 113 | 109 | 94.3 | 67.2 | 53.1 | 117 | 124 | 125 | 126 | 111 | 110 | 118 | 110 | 93.5 | 73.6 | 89.8 | 134 | 122 | 119 | 126 | 126 | 128 | 127 | 108 | 96.4 | 91.6 | 100
7 | CC12CC3CC(C)(C1)CC(N)(C3)C2 | 122 | 119 | 115 | 115 | 129 | 130 | 124 | 122 | 117 | 89.8 | 58.9 | 109 | 118 | 117 | 120 | 138 | 122 | 131 | 130 | 123 | 112 | 78.4 | 110 | 115 | 116 | 117 | 129 | 117 | 125 | 127 | 115 | 109 | 89.7
